Values of other authors as cited in patent publication US11497742B1, “Pharmaceutical composition for the treatment of Covid-19 infection” (priority 2021, dated 2022).

Tests used:
SARS-CoV-2 infection = settings: interim analysis, 775 patients, oral
COVID-19 Mpro = COVID-19 Mpro (Severe acute respiratory syndrome coronavirus 2, UniProt P0DTD1); settings: Hussein and Elkhair 2021

Row | Compound | reduced the risk of hospitalization or death (SARS-CoV-2 infection) | inhibition of COVID-19 Mpro (molecular docking, low binding energies) (COVID-19 Mpro)
1 | CC(C)C(=O)OC[C@H]1O[C@@H](n2ccc(NO)nc2=O)[C@H](O)[C@@H]1O [Molnupiravir] | approximately 50% | 
2 | Zn(CQ)Cl2H2O |  | potent inhibitors
3 | Zn(HCQ)Cl2H2O |  | potent inhibitors
